Results reported in US8841456B2, “1,5-naphthyridine derivative or salt thereof” (FUJIFILM Corporation, priority 2011, dated 2014).

Experiments:
human PI3Kα protein = molecular target: T1, human PI3Kα protein (Homo sapiens, UniProt P42336); assay: PI3Kα enzyme assay (ADP-Glo kinase assay); type: biochemical; details: IC50 class; 3 nM PI3Kα, 50 μM PIP2, 100 μM ATP; read-out: PI3Kα Inhibitory Activity
T1 construct: purchased Carna Biosciences, Inc; host or cells: Baculovirus expression system
How it was run: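 Baculovirus-expressed biotinylated human PI3Kα (3 nM) preincubated 15 min with compound in Tris pH 7.5, MgCl2, BSA, then reacted 60 min at 25 °C with 50 μM PIP2 and 100 μM ATP. ADP quantified by ADP-Glo luminescence; IC50 calculated.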

[1] = molecular target: T2, glutathione S-transferase (GST)-fusion human ERK2 protein (Homo sapiens, UniProt P28482); assay: ERK2 enzyme assay (LabChip mobility shift); type: biochemical; details: IC50 class; 2 nM ERK2, 4.25 μM FL-Peptide 8, 43 μM ATP; read-out: ERK2 Inhibitory Activity
T2 construct: purchased Carna Biosciences, Inc; host or cells: E. coli expression system
How it was run: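 GST-tagged human ERK2 from E. coli, at 2 nM, was preincubated 15 min at room temperature with compound in Hepes pH 7.5 with MgCl2, DTT and Brij35. The reaction ran 120 min at 25 °C with 4.25 μM FL-Peptide 8 and 43 μM ATP (final). Phosphopeptide fraction was measured by mobility-shift separation to give IC50.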

[2] = tested on: Human colon cancer cell line (HCT116); assay: Cell growth inhibition test (Celltiter-Glo); type: cell-based; details: HCT-116, IC50 class, 72 hours culture, viable cells by Celltiter-Glo
Description: Evaluation of the cell proliferation inhibitory activity of the compound of the present invention was carried out according to the method below. Human colon cancer cell line (HCT116) McCoy's 5A (INVITROGEN)+Final Concentration 10% FBS+GLUTA Max (INVITROGEN) Celltiter-Glo™ Luminescent Cell Viability Assay (Promega Corporation) HCT116 was seeded on a 96-well culture microplate (Corning Inc.) at 750/well (90 uL/well), and a compound for evaluation (final concentration: 25.00 μM to 0.01 μM, 3-fold common ratio 8 points) was added thereto. After culturing in a CO2 incubator (37° C.) for 72 hours, the number of viable cells were calculated by Celltiter-Glo. For the measurement of luminescence intensity, EnVision (PerkinElmer, Inc.) was used. The inhibitory activity of the compound was calculated using IC50 (50% inhibitory concentration). The IC50 was calculated using XLfit (IDBS). The results of IC50 were evaluated according to the following evaluation criteria.

T2 sequence (P28482 whole entry, the tested form may be a part): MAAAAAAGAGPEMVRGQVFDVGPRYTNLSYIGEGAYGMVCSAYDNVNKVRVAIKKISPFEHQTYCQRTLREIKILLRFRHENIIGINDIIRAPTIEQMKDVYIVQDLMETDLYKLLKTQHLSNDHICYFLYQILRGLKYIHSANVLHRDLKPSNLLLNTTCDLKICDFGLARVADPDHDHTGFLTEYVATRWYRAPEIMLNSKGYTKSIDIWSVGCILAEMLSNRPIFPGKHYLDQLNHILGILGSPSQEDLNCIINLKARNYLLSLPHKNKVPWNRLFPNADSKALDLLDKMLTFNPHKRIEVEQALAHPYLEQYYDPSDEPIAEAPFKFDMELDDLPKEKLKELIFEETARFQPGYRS
T1 sequence (P42336 whole entry): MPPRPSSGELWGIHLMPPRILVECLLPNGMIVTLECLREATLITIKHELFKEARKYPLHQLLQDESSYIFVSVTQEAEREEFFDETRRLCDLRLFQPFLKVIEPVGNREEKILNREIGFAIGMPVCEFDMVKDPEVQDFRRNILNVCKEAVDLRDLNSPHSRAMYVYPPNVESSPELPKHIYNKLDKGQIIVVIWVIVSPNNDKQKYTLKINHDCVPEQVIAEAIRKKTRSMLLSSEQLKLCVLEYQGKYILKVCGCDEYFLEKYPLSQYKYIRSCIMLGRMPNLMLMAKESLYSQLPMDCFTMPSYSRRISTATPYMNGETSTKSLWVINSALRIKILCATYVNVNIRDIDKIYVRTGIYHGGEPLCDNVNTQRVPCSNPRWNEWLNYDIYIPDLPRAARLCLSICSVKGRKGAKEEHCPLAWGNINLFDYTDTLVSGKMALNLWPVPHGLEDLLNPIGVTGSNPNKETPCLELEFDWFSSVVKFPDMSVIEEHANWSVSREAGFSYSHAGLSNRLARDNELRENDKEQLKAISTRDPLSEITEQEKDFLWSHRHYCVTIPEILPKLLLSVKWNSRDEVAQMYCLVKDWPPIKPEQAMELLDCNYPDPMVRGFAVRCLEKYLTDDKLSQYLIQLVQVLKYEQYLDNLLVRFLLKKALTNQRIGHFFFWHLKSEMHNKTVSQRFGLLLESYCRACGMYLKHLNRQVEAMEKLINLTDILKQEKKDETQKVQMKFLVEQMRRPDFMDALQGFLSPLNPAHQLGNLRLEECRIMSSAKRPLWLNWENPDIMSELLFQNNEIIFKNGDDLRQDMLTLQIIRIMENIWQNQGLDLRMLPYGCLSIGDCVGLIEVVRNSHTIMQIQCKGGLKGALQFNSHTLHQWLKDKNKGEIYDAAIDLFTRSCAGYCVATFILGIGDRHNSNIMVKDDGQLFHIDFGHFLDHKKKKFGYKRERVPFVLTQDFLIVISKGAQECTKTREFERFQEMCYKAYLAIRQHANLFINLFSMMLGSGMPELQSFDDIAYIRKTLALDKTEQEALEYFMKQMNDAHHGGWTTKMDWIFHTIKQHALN
T1 sequence (P27986 whole entry partner): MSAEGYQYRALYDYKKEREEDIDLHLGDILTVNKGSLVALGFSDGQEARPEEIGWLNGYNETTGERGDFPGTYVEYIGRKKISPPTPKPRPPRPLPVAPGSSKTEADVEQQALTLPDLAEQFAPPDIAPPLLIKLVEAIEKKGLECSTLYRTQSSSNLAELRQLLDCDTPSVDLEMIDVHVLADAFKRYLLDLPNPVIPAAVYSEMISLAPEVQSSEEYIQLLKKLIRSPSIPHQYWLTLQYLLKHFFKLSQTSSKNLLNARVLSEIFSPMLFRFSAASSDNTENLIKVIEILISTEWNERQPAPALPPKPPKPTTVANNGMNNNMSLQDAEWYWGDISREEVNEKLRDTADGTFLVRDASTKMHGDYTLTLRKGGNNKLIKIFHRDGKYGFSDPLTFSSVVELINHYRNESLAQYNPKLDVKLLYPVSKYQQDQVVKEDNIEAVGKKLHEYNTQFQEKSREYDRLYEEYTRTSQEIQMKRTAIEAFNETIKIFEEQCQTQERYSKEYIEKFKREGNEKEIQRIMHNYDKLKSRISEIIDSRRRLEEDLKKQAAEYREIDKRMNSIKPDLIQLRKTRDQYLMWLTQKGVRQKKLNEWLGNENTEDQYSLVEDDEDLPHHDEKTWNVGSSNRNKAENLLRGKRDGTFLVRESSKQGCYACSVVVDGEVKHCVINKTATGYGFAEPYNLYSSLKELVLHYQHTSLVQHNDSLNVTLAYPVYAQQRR

SMILES	IC50 (human PI3Kα protein) [nM]	IC50 [1] [nM]	IC50 [2] [nM]
O=C(Nc1ccc2ncc(-c3cccc(CO)c3)cc2n1)NC1CCCC1 [Compound 0041]	100 to 1000	< 100	1000 to 10000
O=C(Nc1ccc2ncc(N3CCOC3=O)cc2n1)NC1CCCC1 [Compound 0046]	< 100	100 to 1000	1000 to 10000
O=C(Nc1ccc2ncc(-c3ccccn3)cc2n1)NC1CCCC1 [Compound 0136]	< 100	< 100	1000 to 10000
CC(=O)N1CCN(c2cnc3ccc(NC(=O)NC4CCCC4)nc3c2)CC1 [Compound 0148]	< 100	100 to 1000	1000 to 10000
O=C(Nc1ccc2ncc(N3CCN(c4ccccn4)CC3)cc2n1)NC1CCCC1 [Compound 0154]	100 to 1000	100 to 1000	< 1000
O=C(Nc1ccc2ncc(N3CCN(c4cccnc4)CC3)cc2n1)NC1CCCC1 [Compound 0157]	< 100	100 to 1000	< 1000
O=C(Nc1ccc2ncc(N3CCN(c4ccncc4)CC3)cc2n1)NC1CCCC1 [Compound 0158]	< 100	100 to 1000	< 1000
CCCC(C)(C)NC(=O)Nc1ccc2ncc(-c3cnn(CCCN4CCOCC4)c3)cc2n1 [Compound 0182]	< 100	< 100	< 1000
CN1CCN(CCCn2cc(-c3cnc4ccc(NC(=O)NC5CCCC5)nc4c3)cn2)CC1 [Compound 0232]	< 100	< 100	–
CCN1CCN(CCCn2cc(-c3cnc4ccc(NC(=O)NC5CCCC5)nc4c3)cn2)CC1 [Compound 0233]	< 100	< 100	–
COc1nc2ccc(NC(=O)NC3CCCC3)nc2cc1-c1cnn(C)c1 [Compound 0234]	1000 to 10000	> 10000	–
COc1c(-c2cnn(C)c2)cnc2ccc(NC(=O)NC3CCCC3)nc12 [Compound 0235]	< 100	< 100	–
Cc1nc2ccc(NC(=O)NC3CCCC3)nc2cc1-c1cnn(C)c1 [Compound 0236]	100 to 1000	> 10000	–
Cc1c(-c2cnn(C)c2)cnc2ccc(NC(=O)NC3CCCC3)nc12 [Compound 0237]	< 100	< 100	–
Cn1cncc1-c1cnc2ccc(NC(=O)NC3CCCC3)nc2c1 [Compound 0238]	100 to 1000	< 100	–
O=C(Nc1ccc2ncc(-c3cnco3)cc2n1)NC1CCCC1 [Compound 0239]	< 100	< 100	–
O=C(Nc1ccc2ncc(N3CC(OCCCN4CCOCC4)C3)cc2n1)NC1CCCC1 [Compound 0240]	< 100	100 to 1000	–
O=C(Nc1ccc2ncc(N3CC(OCCN4CCOCC4)C3)cc2n1)NC1CCCC1 [Compound 0241]	< 100	100 to 1000	–

SMILES	IC50 (human PI3Kα protein) [nM]	IC50 [1] [nM]	IC50 [2] [nM]
COC1CN(c2cnc3ccc(NC(=O)NC4CCCC4)nc3c2)C1 [Compound 0242]	100 to 1000	100 to 1000	–
CN(C)CC(C)(C)Cn1cc(-c2cnc3ccc(NC(=O)NC4CCCC4)nc3c2)cn1 [Compound 0243]	< 100	100 to 1000	< 1000
C[C@H](CN(C)C)Cn1cc(-c2cnc3ccc(NC(=O)NC4CCCC4)nc3c2)cn1 [Compound 0244]	< 100	< 100	–
C[C@@H](CN(C)C)Cn1cc(-c2cnc3ccc(NC(=O)NC4CCCC4)nc3c2)cn1 [Compound 0245]	< 100	100 to 1000	–
O=C(Nc1ccc2ncc(-c3cnn(CCCN4CCCC4)c3)cc2n1)NC1CCCC1 [Compound 0246]	< 100	< 100	–
O=C(Nc1ccc2ncc(-c3cnn(CCCN4CC[C@H](F)C4)c3)cc2n1)NC1CCCC1 [Compound 0247]	< 100	< 100	–
O=C(Nc1ccc2ncc(-c3cnn(CCCN4CC[C@@H](F)C4)c3)cc2n1)NC1CCCC1 [Compound 0248]	< 100	< 100	–
CC(=O)OCCCCn1cc(-c2cnc3ccc(NC(=O)NC4CCCC4)nc3c2)cn1 [Compound 0249]	< 100	< 100	–
O=C(NCCCCc1ccccc1)Nc1ccc2ncc(Nc3cn[nH]c3)cc2n1 [Compound 0250]	< 100	< 100	–
Cn1cc(-c2cnc3ccc(NC(=S)NC(=O)c4ccccc4)nc3c2)cn1 [Compound 0251]	100 to 1000	100 to 1000	–
O=C(NCC1C[C@@H]2CC[C@H]1C2)Nc1ccc2ncc(-c3cnn(CCN4CCNCC4)c3)cc2n1 (stereo partly shown) [Compound 0252]	100 to 1000	100 to 1000	–
CC1(NC(=O)Nc2ccc3ncc(N4CCOCC4)cc3n2)CCCC1 [Compound 0253]	< 100	< 100	–
CC1(NC(=O)Nc2ccc3ncc(-c4cnn(C5CCNCC5)c4)cc3n2)CCCC1 [Compound 0254]	< 100	100 to 1000	–
CN1CCC(n2cc(-c3cnc4ccc(NC(=O)NC5(C)CCCC5)nc4c3)cn2)CC1 [Compound 0255]	< 100	100 to 1000	< 1000
CC1(NC(=O)Nc2ccc3ncc(-c4cnn(CCCN5CCNCC5)c4)cc3n2)CCCC1 [Compound 0256]	< 100	100 to 1000	–
CN1CCN(CCCn2cc(-c3cnc4ccc(NC(=O)NC5(C)CCCC5)nc4c3)cn2)CC1 [Compound 0257]	< 100	100 to 1000	–
CN(C)CCCn1cc(-c2cnc3ccc(NC(=O)NC4(C)CCCC4)nc3c2)cn1 [Compound 0258]	< 100	100 to 1000	–
O=C(Nc1ccc2ncc(-n3ccnc3)cc2n1)NC1CCCC1 [Compound 0259]	100 to 1000	< 100	–
